Measured values from article PMC8536644, “Enigmatic mechanism of the N-vinylpyrrolidone hepatocarcinogenicity in the rat” (Archives of Toxicology, 2021).
Several values for one entry are separate records, joined by “and”; a condition that tells them apart may be missing. Equal entries are not always repeated.

What was measured:
rat lung cells = experiment: Comet assay, conventional (no FPG), lung; conditions: no FPG; for Increase of the TI vs vehicle control / Hedgehogs/100 cells (mean ± SD) / TI (%) (mean ± SD) / TI (%), mean of medians from 2 slides: lung; for Increase of the TI vs vehicle control: p ≤ 0.01; for Hedgehogs/100 cells (mean ± SD) / TI (%) (mean ± SD) / TI (%), mean of medians from 2 slides: 200 mg/kg bw oral, once; for TI (%), mean of medians from 2 slides: individual animals
Experimental: Animals were anesthetized by 3.5% isoflurane (approximately 3 min, evaporator Dräger Vapor 19.3) and then killed by cervical dislocation. The liver was removed and its left lateral lobe used for the Comet assay. The remainder of the liver was washed in saline and then in two aliquots shock frozen in liquid nitrogen and stored at − 80 °C for later examinations. Subsequently the lung was removed from the dead animal. Its left lobe was used for the Comet assay and the remainder treated as described above for the liver. Thereafter the femora were removed for the preparation of the bone marrow.
The Comet assay was performed under alkaline conditions according to the principles described by Singh et al. ([1988]) and Tice et al. ([2000]).
Liver and lung cells were obtained essentially as described by Hartmann et al. ([2004]) and by the Japanese Center for the Validation of Alternative Methods (JaCVAM [2009]). Single cells were obtained within 1 h after killing of the animals in order to minimize DNA damage during the preparation.
The organ parts (see above) were washed in mincing buffer (50 mM EDTA in HBSS [without Ca^2+ and Mg^2+] pH 7.5: DMSO 9:1 (v/v), the latter added shortly before use, stored at 4 °C), cut into 1 to 2-mm pieces in ice-cold mincing buffer and transferred to a cell sieve with 70-µm pores. The viability of the cell suspension was evaluated by the Trypan Blue Assay (Strober [2001]).
100 µL of the obtained cell suspension was mixed at 37 °C with 900 µL Low Melting Agarose (LMA) (0.7% agarose in phosphate-buffered saline [PBS] [Biochrom, Berlin, Germany] without Ca^2+ and Mg^2+). 100 µL of this mixture was transferred to a slide, which had been coated with Normal Melting Agarose (NMA) (0.6% agarose in PBS without Ca^2+ and Mg^2+). The slides were protected with a cover slip and the agarose was hardened at approximately 4 °C. The cover slips were then removed and the slides put over night at 4 °C into lysis buffer (2.5 M NaCl, 125 mM NaOH, 127 mM EDTA, 10 mM Tris/NaOH, pH 10; 1% Triton X-100 and 10% DMSO (v/v), the latter two added before use) in order to lyse the cell membrane, nuclear membrane and remove the histone.
The then following procedures were performed in a shaded room to minimize UV-mediated DNA damage during the procedures.
Remaining lysis buffer or FPG buffer was removed by immersing/washing the slides in PBS (without Ca^2+ and Mg^2+).
The slides were then placed into the electrophoresis chamber, which was cooled and protected from light. Slides were covered with electrophoresis buffer (0.3 M NaOH, 1 mM EDTA, pH > 13) carefully avoiding air bubbles. The DNA was allowed to unwind (20 min). Thereafter the electrophoresis was started (25 V, 300 mA, […], 30 min). The slides were then washed (2 times 5 min) in neutralization buffer (0.4 M Tris/HCl, pH 7.5), dehydrated and fixed in 100% ethanol (1 min), dried at room temperature overnight and stored at room temperature protected from dust.
Quantitative evaluation of the Comet assays was performed by fluorescence microscopy after DNA staining with ethidium bromide.

rat liver cells = experiment: Trypan Blue viability of the single cell suspension, liver; type: in vivo; conditions: Wistar, rat, in vivo, po, 200 mg/kg, 24 h
[1] = as above; type: in vivo, rat; conditions: Wistar, rat, in vivo, po, 200 mg/kg
[2] = tested on: polychromatic erythrocytes of rat bone marrow; experiment: Micronucleus test in rat bone marrow (OECD 474); conditions: for MN/ 1000 PCE Mean ± SD / MN/ 1000 PCE Range / PCE/1000 Erythrozyten Mean ± SD / PCE/NCE quotient (%): 200 mg/kg body weight oral
Experimental: 13-mm filter disks with a pore size of 8 µm were placed on the bottom of 5-mL plastic syringes. Approximately 500 mg of a mixture consisting of equal parts microcrystalline cellulose (Sigmacell®, Typ 50) and alpha-cellulose fibers was added up to the 2-mL mark.
Bone marrow preparation was performed according to published methods (Romagna and Staniforth [1989]; Salamone et al. [1980]). The soft tissue was removed from the femora and the epiphyses were cut off. The bone marrow was rinsed off the diaphyses with approximately 3 mL 37 °C-warm fetal calf serum (FCS) (Biochrom, Berlin, Germany) per femur, placed on the above-described cellulose column and eluted with 3 mL of Hank's Balanced Salt Solution (HBSS) (Biochrom, Berlin, Germany) (with Ca^2+ und Mg^2+). The eluate was centrifuged at 300 g for 5 min and the pellet was suspended in […] FCS. From this suspension three portions per femur were individually placed on slides, air-dried and then stained for 4 min in May-Grunwald solution 1 (Merck, Darmstadt, Germany), followed by 4 min in May–Grunwald solution 2 (May-Grunwald solution 1 diluted 1:1 with aqua bidest.), rinsed in aqua bidest and then stained with Giemsa solution (7.5% dilution derived from Giemsa obtained from Merck, Darmstadt, Germany) for 15 min. Subsequently, the slides were washed twice with aqua bidest, then dried, cleared in xylene and covered with Corbit-Balsam (I. Hecht, Kiel-Hasse, Germany).
2000 polychromatic erythrocytes (PCE) per animal (1000 per slide) were evaluated at 1000-fold magnification under immersion oil for the presence/absence of large and small micronuclei as well as the proportion of PCE among the total erythrocytes. Statistical significance of differences between treated versus untreated groups was evaluated by the one-sided Wilcoxon test (using the program MUKERN). The result is regarded as positive when the following criteria are fulfilled: 1.
2000 PCEs were analyzed for micronuclei per animal.

## CCOS(C)(=O)=O [EMS, ethyl methanesulfonate, reference compound]
Rat lung cells; lung cells, 200 mg/kg
  Hedgehogs per 100 cells, averaged for both genders: 9 per 100 cells
Rat lung cells; female, 200 mg/kg
  Increase of the TI vs vehicle control: 21 fold
  TI (%), mean of medians from 2 slides: 13.2% and 13.0% and 18.7% and 18.8% and 17.8%
Rat lung cells; female
  Hedgehogs/100 cells (mean ± SD): 9 ± 5 /100 cells
  TI (%) (mean ± SD): 16.7 ± 2.83%
Rat lung cells; male, 200 mg/kg
  Increase of the TI vs vehicle control: 17 fold
  TI (%), mean of medians from 2 slides: 20.7% and 14.6% and 26.5% and 13.1% and 23.3% and 17.8%
Rat lung cells; male
  Hedgehogs/100 cells (mean ± SD): 9 ± 4 /100 cells
  TI (%) (mean ± SD): 19.3 ± 5.15%
Rat liver cells; female
  Individual viability (%): 97%
Rat liver cells; male
  Individual viability (%): 94%
[1]; female, Individual viability (%)
  viability at 24 h: 99%
[1]; female, Viability (%) (mean ± SD)
  viability at 24 h: 96 ± 2%
[1]; male, Individual viability (%)
  viability at 24 h: 91%
[1]; male, Viability (%) (mean ± SD)
  viability at 24 h: 95 ± 3%
[2]; female
  MN/ 1000 PCE Mean ± SD: 11.8 ± 12.3 MN/ 1000 PCE
  MN/ 1000 PCE Range: 9.0–14.5 MN/ 1000 PCE
  PCE/1000 Erythrozyten Mean ± SD: 563 ± 29 PCE/1000 Erythrozyten
  PCE/NCE quotient (%): 89%
[2]; male
  MN/ 1000 PCE Mean ± SD: 14.5 ± 6.0 MN/ 1000 PCE
  MN/ 1000 PCE Range: 3.0–20.0 MN/ 1000 PCE
  PCE/1000 Erythrozyten Mean ± SD: 616 ± 50 PCE/1000 Erythrozyten
  PCE/NCE quotient (%): 101%
[2]; 200 mg/kg body weight, independent of gender
  Micronuclei in PCE: 13.2 ± 4.6 ‰
[2]; female, Wistar Crl:WI (Han), rat, in vivo, 24 h
  Micronuclei in PCE: 11.8 ± 2.3 ‰
[2]; male, Wistar Crl:WI (Han), rat, in vivo, 24 h
  Micronuclei in PCE: 14.5 ± 6.0 ‰
